Target: T1, human adenosine A3 receptor (Homo sapiens, UniProt P0DMS8)
T1 construct: expressed in transfected cells; membrane fraction used
T1 sequence (P0DMS8 1-318): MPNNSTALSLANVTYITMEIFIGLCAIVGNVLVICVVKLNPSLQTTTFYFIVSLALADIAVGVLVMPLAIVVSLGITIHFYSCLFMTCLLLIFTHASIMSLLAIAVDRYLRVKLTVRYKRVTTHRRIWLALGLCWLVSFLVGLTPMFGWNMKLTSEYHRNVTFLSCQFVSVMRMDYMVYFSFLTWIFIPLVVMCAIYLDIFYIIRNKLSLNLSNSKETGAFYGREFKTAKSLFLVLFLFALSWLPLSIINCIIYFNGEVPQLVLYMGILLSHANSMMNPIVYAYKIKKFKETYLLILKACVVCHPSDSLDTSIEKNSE
Assay: Binding assays with adenosine A3 receptor ([3H]-NECA displacement, A3AR/CHO cell membranes)
Conditions: [3H]-NECA as ligand; 100 μg/mL membranes of CHO cells expressing human adenosine A3 receptor; 1 hour at room temperature; read-out: IC50 (concentration that inhibits 50% specific binding of [3H]-NECA to the membrane)
Experimental: The following procedures in this Example were carried out according to the methods described in Molecular Cloning —Cold Spring Harbor Laboratory (1989) or protocol specified by manufacturers.
Cloning of the human adenosine A3 receptor gene was carried out by the polymerase chain reaction (PCR) from human brain cDNA. Using 1 ng of brain cDNA (Quick-Clone cDNA, TOYOBO, Osaka) as template, PCR was performed in DNA Thermal Cycler 480 (Perkin Elmer) (reaction conditions: 35 cycles of 1 min at 95° C., 1 min at 66° C., and 2 min at 75° C.) by mixing primers (50 pmol each),
5′-[…]-3′ [Sequence No. 1] and 5′-[…]-3′ [Sequence No. 2], which were designed referring to nucleotide sequence of adenosine A3 receptor gene reported by Salvatore et. al., (Proc. Natl. Acad. Sci. U. S. A., 90:10365-10369, 1993) and TaKaRa LA PCR Kit Ver.2 (TaKaRa Shuzo Co. Ltd., Kyoto). The PCR product was electrophoresed and 1.0 kb DNA fragment was recovered. The DNA fragment encoding adenosine A3 receptor was cloned using Original TA Cloning Kit (FUNAKOSHI, Tokyo).
Thus obtained plasmid was digested with Xba I (TaKaRa Shuzo Co. Ltd., Kyoto), blunted with T4 DNA polymerase (TaKaRa Shuzo Co. Ltd., Kyoto) and digested with Sal I (TaKaRa Shuzo Co. Ltd., Kyoto) to obtain adenosine A3 receptor gene fragment. […]

IC50: 3.5 nM
SMILES: COc1ccc(-c2c(-c3ccncc3)sc3nc(=O)cc(N)n23)cc1 [Example Compound 1, 5-Amino-3-(4-methoxyphenyl)-2-(4-pyridyl)-7H-thiazolo[3,2-a]pyrimidin-7-one]

From patent publication US6583146B1, “Thiazolopyrimidine compounds, its production and use” (Takeda Chemical Industries, Ltd., priority 1999, dated 2003)
